# Assay results published in US7557133B2, “Caspase inhibitors containing isoxazoline ring” (LG Life Sciences Ltd., priority 2003, dated 2009).
# Legend:
# [1] = molecular target: T1, caspase-8 (Homo sapiens, UniProt Q14790); assay: Caspase-8 inhibitory effect (fluorescent substrate AcDEVD-AFC); assay type: biochemical; details: 25° C., 50 μM AcDEVD-AFC, 2.1 nM caspase-8; for kinact/KI: pH 7.5, read-out: Caspase-8 Kobs/[I] (converted)
# T1 construct: p10 and p20 subunits (Thornberry, N. A. et al, Nature, 1992, 356, 768) were expressed in E. coli; made in house; host or cells: E. coli
# Procedure: Caspase-1 and caspase-8 known as cysteine proteases in the form of α2β2 were expressed, purified, and activated by modifying a method known in Thornberry, N. A. et al, Nature, 1992, 356, 768. Thornberry, N. A. Methods in Enzymology, 1994, 244, 615. Walker, N. P. C. et al. Cell, 1994, 78, 343, and caspase-9 was also purified by a similar method, and the inhibitory activity against them was tested. Briefly describing, p10 and p20 subunits (Thornberry, N. A. et al, Nature, 1992, 356, 768) were expressed in E. coli and purified by nickel column and anionic exchange chromatography to give caspase-1, caspase-8 and caspase-9. The fluorescent substrate AcYVAD-AFC for thus obtained caspase-1, AcDEVD-AFC for caspase-8, and AcLEHD-AFC for caspase-9 were used for determining specific activity of the synthesized inhibitors. The enzyme reaction was carried out at 25° C. with various concentrations of the inhibitors in a buffer solution containing 50 mM HEPES(pH 7.50), 10% (w/v) sucrose, 0.1% (w/v) CHAPS, 100 mM NaCl, 1 mM EDTA, and 10 mM DTT in the presence of 50 μM AcYVAD-AFC for 10 nM caspase-1, 50 μM AcDEVD-AFC for 2.1 nM caspase-8, and 150 μM AcLEHD-AFC for 200 nM caspase-9. The inhibitory constants Ki and Kobs of the inhibitors were determined by measuring the reaction velocity with the time lapse using a fluorescent spectrometer and by obtaining the initial rate constant. Ki was calculated from the Lineweaver Burk Plot, and Kobs from the following Equation 1. Kobs=−ln(1−At/Aoo)/t Equation 1
# At means cleavate rate (%) at time t, and
# Aoo means the maximum cleavage rate (%).
# Spectra MAX GeminiXS Fluorescent Spectrometer of Molecular Device Co. was used at the excitation wavelength of 405 nm and the emission wavelength of […].
# [2] = system: Jurkat cell (ATCC TIB-152); assay: Jurkat cell apoptosis by Fas antibody, WST-1 method; assay type: cell-based; details: apoptosis using Fas antibody, WST-1; for IC50: Homo sapiens, Jurkat
# Procedure: The […] inhibitory activity of the inhibitors was determined by subjecting Jurkat cell (ATCC TIB-152) to apoptosis using Fas antibody (Upstate Biotech 05-201) and by detecting the color change according to the WST-1 method known in Francoeur A. M. and Assalian A. (1996) Biochemica 3, 19-25 to observe the amount of alive Jurkat cells when the cells were treated by the inhibitor. Spectra MAX 340 Spectrometer of Molecular Device Co. was used at the absorbance wavelength of 440 nm.
# T1 sequence (Q14790 217-374 limits assumed, species assumed): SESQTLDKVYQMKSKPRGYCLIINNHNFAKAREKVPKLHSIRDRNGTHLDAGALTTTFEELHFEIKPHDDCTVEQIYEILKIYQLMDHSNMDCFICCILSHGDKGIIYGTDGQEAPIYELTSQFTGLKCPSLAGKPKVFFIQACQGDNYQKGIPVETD
# T1 sequence (Q14790 385-479 limits assumed, species assumed): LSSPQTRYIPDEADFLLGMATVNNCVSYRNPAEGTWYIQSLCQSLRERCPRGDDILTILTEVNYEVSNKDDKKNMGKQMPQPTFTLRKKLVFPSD
SMILES,kinact/KI [1],Jurkat cell IC50 [2],Caspase-8 Kobs/[I] [1],IC50 [2]
"CC(C)C(=O)OCC(=O)[C@H](CC(=O)O)NC(=O)[C@]1(C(C)C)CC(c2nccc3ccccc23)=NO1 [Iaa21, (3S)-5-(isobutyryloxy)-3-({[(5R)-5-isopropyl-3-(1-isoquinolinyl)-4,5-dihydro-5-isoxazolyl]carbonyl}amino)-4-oxopentanoic acid]",,No Activity,No Activity,
"CC(C)[C@@]1(C(=O)N[C@@H](CC(=O)O)C(=O)COc2cccc[n+]2C)CC(c2nccc3ccccc23)=NO1.O=S(=O)([O-])C(F)(F)F [Iaa25, 2-{[(3S)-4-carboxy-3-({[(5R)-5-isopropyl-3-(1-isoquinolinyl)-4,5-dihydro-5-isoxazolyl]carbonyl}amino)-2-oxobutyl]oxy}-1-methylpyridinium trifluoromethanesulfonate]",2830 M⁻¹ s⁻¹,No Activity,,
"CCC1(C(=O)N[C@@H](CC(=O)O)C(=O)COc2cccc[n+]2C)CC(c2ccccc2C(C)C)=NO1.O=S(=O)([O-])C(F)(F)F (stereo partly drawn) [Iaa26, 2-{[(3S)-4-carboxy-3-({[5-ethyl-3-(2-isopropylphenyl)-4,5-dihydro-5-isoxazolyl]carbonyl}amino)-2-oxobutyl]oxy}-1-methylpyridinium trifluoromethanesulfonate]",517 M⁻¹ s⁻¹,No Activity,,
"CC(C)C1(C(=O)NC(CC(=O)O)C(=O)CF)CC(c2cc3cc(Cl)ccc3n2C)=NO1 (centres unmarked) [Iaa27, 3-({[3-(5-chloro-1-methyl-1H-indol-2-yl)-5-isopropyl-4,5-dihydro-5-isoxazolyl]carbonyl}amino)-5-fluoro-4-oxopentanoic acid]",13700 M⁻¹ s⁻¹,,,1.3 µM
"Cc1ccc2c(c1)cc(C1=NOC(C(=O)NC(CC(=O)O)C(=O)CF)(C(C)C)C1)n2C (centres unmarked) [Iaa28, 3-({[3-(1,5-dimethyl-1H-indol-2-yl)-5-isopropyl-4,5-dihydro-5-isoxazolyl]carbonyl}amino)-5-fluoro-4-oxopentanoic Acid]",30000 M⁻¹ s⁻¹,,,0.6 µM
"CCC1(C(=O)N[C@@H](CC(=O)O)C(=O)COc2c(F)c(F)cc(F)c2F)CC(c2ccc3ccccc3c2)=NO1 (stereo partly drawn) [Iee, (3S)-3-({[5-ethyl-3-(2-naphthyl)-4,5-dihydro-5-isoxazolyl]carbonyl}amino)-4-oxo-5-(2,3,5,6-tetrafluorophenoxy)pentanoic acid]",3000 M⁻¹ s⁻¹,,,32.6 µM
"CCC1(C(=O)N[C@@H](CC(=O)O)C(=O)COc2c(F)c(F)cc(F)c2F)CC(c2nccc3ccccc23)=NO1 (stereo partly drawn) [Iff, (3S)-3-({[5-ethyl-3-(1-isoquinolinyl)-4,5-dihydro-5-isoxazolyl]carbonyl}amino)-4-oxo-5-(2,3,5,6-tetrafluorophenoxy)pentanoic acid]",8330 M⁻¹ s⁻¹,,,1.2 µM
"CCC1(C(=O)NC(CC(=O)O)C(=O)CF)CC(c2cc3ccccc3s2)=NO1 (centres unmarked) [Ikk, 3-({[3-(benzothiophen-2-yl)-5-ethyl-4,5-dihydro-5-isoxazolyl]carbonyl}amino)-5-fluoro-4-oxopentanoic acid]",2000 M⁻¹ s⁻¹,,,1.1 µM
"CCC1(C(=O)NC(CC(=O)O)C(=O)CF)CC(c2c(C)c3ccccc3n2C)=NO1 (centres unmarked) [Imm, 3-({[3-(1,3-Dimethyl-1H-indol-2-yl)-5-ethyl-4,5-dihydro-5-isoxazolyl]carbonyl}amino)-5-fluoro-4-oxopentanoic acid]",2670 M⁻¹ s⁻¹,,,2 µM
"CCC1(C(=O)N[C@@H](CC(=O)O)C(=O)COC(=O)c2c(Cl)cccc2Cl)CC(CCc2cccc3ccccc23)=NO1 (stereo partly drawn) [Ioo, (3S)-5-[(2,6-dichlorobenzoyl)oxy]-3-[({5-ethyl-3-[2-(1-naphthyl)ethyl]-4,5-dihydro-5-isoxazolyl}carbonyl)amino]-4-oxopentanoic acid]",333 M⁻¹ s⁻¹,,,50 µM
"CCC1(C(=O)NC(CC(=O)O)C(=O)CF)CC(c2cccc3cccnc23)=NO1 (centres unmarked) [Ixx, 3-({[5-ethyl-3-(8-quinolinyl)-4,5-dihydro-5-isoxazolyl]carbonyl}amino)-5-fluoro-4-oxopentanoic acid]",667 M⁻¹ s⁻¹,,,26.5 µM

# The remaining lines, values ahead:
kinact/KI [1],Jurkat cell IC50 [2],Caspase-8 Kobs/[I] [1],IC50 [2],SMILES
617 M⁻¹ s⁻¹,No Activity,,,"CC(C)[C@@]1(C(=O)N[C@@H](CC(=O)O)C(=O)COC2=C(Cc3ccccc3)C(=O)OC2)CC(c2nccc3ccccc23)=NO1 [Iaa20, (3S)-5-[(4-benzyl-5-oxo-2,5-dihydro-3-furanyl)oxy]-3-({[(5R)-5-isopropyl-3-(1-isoquinolinyl)-4,5-dihydro-5-isoxazolyl]carbonyl}amino)-4-oxopentanoic Acid]"
483 M⁻¹ s⁻¹,No Activity,,,"CC(C)[C@@]1(C(=O)N[C@@H](CC(=O)O)C(=O)COc2ccccn2)CC(c2nccc3ccccc23)=NO1 [Iaa23, (3S)-3-({[(5R)-5-isopropyl-3-(1-isoquinolinyl)-4,5-dihydro-5-isoxazolyl]carbonyl}amino)-4-oxo-5-(2-pyridinyloxy)pentanoic Acid]"
3170 M⁻¹ s⁻¹,,,4.7 µM,"CCC1(C(=O)NC(CC(=O)O)C(=O)CF)CC(c2ccnc3ccccc23)=NO1 (centres unmarked) [Ijj, 3-({[5-Ethyl-3-(4-quinolinyl)-4,5-dihydro-5-isoxazolyl]carbonyl}amino)-5-fluoro-4-oxopentanoic acid]"
2170 M⁻¹ s⁻¹,,,39.2 µM,"CCC1(C(=O)N[C@@H](CC(=O)O)C(=O)COc2c(F)c(F)cc(F)c2F)CC(c2c(C)c3ccccc3n2C)=NO1 (stereo partly drawn) [Ill, (3S)-3-({[3-(1,3-dimethyl-1H-indol-2-yl)-5-ethyl-4,5-dihydro-5-isoxazolyl]carbonyl}amino)-4-oxo-5-(2,3,5,6-tetrafluorophenoxy)pentanoic acid]"
4330 M⁻¹ s⁻¹,,,6.5 µM,"CCC1(C(=O)N[C@@H](CC(=O)O)C(=O)COc2c(F)c(F)cc(F)c2F)CC(Cc2cccc3ccccc23)=NO1 (stereo partly drawn) [Inn, (3S)-3-({[5-ethyl-3-(1-naphthylmethyl)-4,5-dihydro-5-isoxazolyl]carbonyl}amino)-4-oxo-5-(2,3,5,6-tetrafluorophenoxy)pentanoic acid]"
7170 M⁻¹ s⁻¹,,,0.16 µM,"CCC[C@@]1(C(=O)NC(CC(=O)O)C(=O)CF)CC(c2nccc3ccccc23)=NO1 (stereo partly drawn) [Itt, 5-Fluoro-3-({[(5S)-3-(1-isoquinolinyl)-5-propyl-4,5-dihydro-5-isoxazolyl]carbonyl}amino)-4-oxopentanoic acid]"
4830 M⁻¹ s⁻¹,,,0.98 µM,"CC[C@@]1(C(=O)NC(CC(=O)O)C(=O)CF)CC(c2cccc3ccccc23)=NO1 (stereo partly drawn) [Iuu, 3-({[(5S)-5-ethyl-3-(1-naphthyl)-4,5-dihydro-5-isoxazolyl]carbonyl}amino)-5-fluoro-4-oxopentanoic acid]"
25000 M⁻¹ s⁻¹,,,0.15 µM,"CC[C@@]1(C(=O)NC(CC(=O)O)C(=O)CF)CC(c2ccc3ccccc3n2)=NO1 (stereo partly drawn) [Ivv, 3-({[(5S)-5-ethyl-3-(2-quinolinyl)-4,5-dihydro-5-isoxazolyl]carbonyl}amino)-5-fluoro-4-oxopentanoic acid]"
18300 M⁻¹ s⁻¹,,,1.9 µM,"CC[C@]1(C(=O)NC(CC(=O)O)C(=O)CF)CC(c2cc3ccccc3cn2)=NO1 (stereo partly drawn) [Iww, 3-({[(5R)-5-ethyl-3-(3-isoquinolinyl)-4,5-dihydro-5-isoxazolyl]carbonyl}amino)-5-fluoro-4-oxopentanoic Acid]"
5170 M⁻¹ s⁻¹,,,31.2 µM,"CCC1(C(=O)NC(CC(=O)O)C(=O)CF)CC(c2cnc3ccccc3c2)=NO1 (centres unmarked) [Iyy, 3-({[5-ethyl-3-(3-quinolinyl)-4,5-dihydro-5-isoxazolyl]carbonyl}amino)-5-fluoro-4-oxopentanoic acid]"
7000 M⁻¹ s⁻¹,,,1.25 µM,"CC(C)[C@@]1(C(=O)NC(CC(=O)O)C(=O)CF)CC(c2ccc3ccccc3n2)=NO1 (stereo partly drawn) [Izz, 5-Fluoro-3-({[(5R)-5-isopropyl-3-(2-quinolinyl)-4,5-dihydro-5-isoxazolyl]carbonyl}amino)-4-oxopentanoic Acid]"
